Experimental data taken from patent US20090111847A1, “PREPARATION METHOD AND USE OF COMPOUNDS HAVING HIGH INSECTICIDAL ACTIVITIES” (priority 2006, published 2009).

Experiments:
Aphis craccivora = assay: Insecticidal activity against Aphis craccivora by immersing (mortality after 24 hours); type: in vivo; conditions: for Mortality (%) (500 ppm) Aphis craccivora / Aphis craccivora LC50 (ppm) / Aphis craccivora Mortality (%) (100 ppm): in vivo; for mortality at 500 ppm: Aphis craccivora, 24 h, read-out: Mortality (%) (500 ppm) Aphis craccivora
Method: Aphis, which belongs to Homoptera and has a piercing-sucking mouthpart, is a common insect for agricultural plant. Aphis craccivora was tested by the way of immersing.
Test method: exactly weighed various samples were independently added to N,N-dimethylformamide to form a 10 g/L stock solution. The mixture was diluted with 0.2 mL/L aqueous Triton X-100 solution to a concentration of 500 ug/mL. After stably sucking on bean sprout, the adult aphis without wings together with bean sprout was dipped into the dilution of 500 ug/mL, 100 ug/mL, 50 ug/mL, 25 ug/mL, 12.5 ug/mL, 6.25 ug/mL (LD50 was calculated), taken out after 5 seconds, and the excess dilution was sucked out with bibulous paper and the adult aphis without wings was incubated in clean vessel at a constant temperature of 23° C. Each concentration was repeated for 3 times and the control group contained 0.2 mL/L aqueous Triton X-100 solution. The number of killed aphis was counted after 24 hours to calculate the mortality.

Nilaparvata lugens = assay: Insecticidal activity against Nilaparvata lugens by spraying (mortality after 24 hours); type: in vivo; conditions: for Mortality (%) (500 ppm) Nilaparvata lugens: spraying 2 ml, counted after 24 hours; for mortality at 500 ppm: Nilaparvata lugens, 24 h, read-out: Mortality (%) (500 ppm) Nilaparvata lugens
Method: Plant hopper, which belongs to Homoptera and has a piercing-sucking mouthpart, is a common insect for agricultural plant. Nilaparvata lugens was tested by the way of spraying.
Test method: the compound to be tested was exactly formulated into a solution having a certain concentration and clean water was used as a blank control. Each process was repeated for 3 tumblers (3 times). 2 ml of solution was sprayed uniformly to each tumbler by a mini manual sprayer. 10 Nilaparvata lugens were introduced to every sink 6 hours before spraying. Three series of experiments were conducted. The number of killed Nilaparvata lugens was counted after 24 hours to calculate the mortality.

| Structure (SMILES) | Mortality (%) (500 ppm) Aphis craccivora (Aphis craccivora) | Mortality (%) (500 ppm) Nilaparvata lugens (Nilaparvata lugens) | Aphis craccivora LC50 (ppm) (Aphis craccivora) | Aphis craccivora Mortality (%) (100 ppm) (Aphis craccivora) | also measured |
| --- | --- | --- | --- | --- | --- |
| CCCCCOC1CC(C)C([N+](=O)[O-])=C2N(Cc3ccc(Cl)nc3)CCN21 (stereo not drawn) [Compound 8] | 67 | 80 |  |  |  |
| CCOC1C(C)CC([N+](=O)[O-])=C2N(Cc3ccc(Cl)nc3)CCN21 (stereo not drawn) [Compound 19] | 100 | 100 |  |  |  |
| COC1C([N+](=O)[O-])=C2N(Cc3ccc(Cl)nc3)CCN2C(O)C1C (stereo not drawn) [Compound 43] | 100 | 97 |  |  |  |
| CCCC1CC(O)N2CCN(Cc3ccc(Cl)nc3)C2=C1[N+](=O)[O-] (stereo not drawn) [Compound 24] | 97 | 89 |  |  |  |
| CCC1CC([N+](=O)[O-])=C2N(Cc3ccc(Cl)nc3)CCN2C1O (stereo not drawn) [Compound 26] | 100 | 100 |  |  |  |
| CCCC1CC([N+](=O)[O-])=C2N(Cc3ccc(Cl)nc3)CCN2C1O (stereo not drawn) [Compound 28] | 100 | 96 |  |  |  |
| CCOC1CC(C)C([N+](=O)[O-])=C2N(CC3CCOC3)CCN21 (stereo not drawn) [Compound 17] | 89 | 100 |  |  |  |
| CCOC1CC([N+](=O)[O-])=C2N(Cc3ccc(Cl)nc3)CCN2C1O (stereo not drawn) [q] |  |  | 70.9 | 85 |  |
| COC1CC(O)N2CCN(Cc3ccc(Cl)nc3)C2=C1[N+](=O)[O-] (stereo not drawn) [n] |  |  | 40.5 | 96 |  |
| CCCOC1C(C)CC([N+](=O)[O-])=C2N(Cc3ccc(Cl)nc3)CCN21 (stereo not drawn) [Compound 20] | 86 | 98 |  |  |  |
| COC1CC(C)(C)C([N+](=O)[O-])=C2N(Cc3ccc(Cl)nc3)CCN21 (stereo not drawn) [Compound 32] | 100 | 100 |  |  |  |
| CC1CC(O)N2CCN(Cc3ccc(Cl)nc3)C2=C1[N+](=O)[O-] (stereo not drawn) [a] |  |  | 31.5 | 95.3 |  |
| COC1CC(C)C([N+](=O)[O-])=C2N(Cc3ccc(Cl)nc3)CCN21 (stereo not drawn) [b] |  |  | 50.8 | 84 |  |
| CC1C([N+](=O)[O-])=C2N(Cc3ccc(Cl)nc3)CCN2C(O)C1C (stereo not drawn) [Compound 30, 1-((6-chloropyridin-3-yl)methyl)-6,7-dimethyl-8-nitro-1,2,3,5,6,7-hexahydroimidazo[1,2-a]pyridin-5-ol] |  |  |  |  | mortality at 500 ppm (Aphis craccivora): 100%; mortality at 500 ppm (Nilaparvata lugens): 100% |
| CCC1C(C)C([N+](=O)[O-])=C2N(Cc3ccc(Cl)nc3)CCN2C1O (stereo not drawn) [Compound 33] | 92 | 78 |  |  |  |
| CCC1CC(OC(C)C)N2CCN(Cc3ccc(Cl)nc3)C2=C1[N+](=O)[O-] (stereo not drawn) [Compound 23] | 65 | 95 |  |  |  |
| CC(C)OC1CC(C)C([N+](=O)[O-])=C2N(Cc3ccc(Cl)nc3)CCN21 (stereo not drawn) [Compound 6] | 100 | 100 |  |  |  |
| CC1CC([N+](=O)[O-])=C2N(Cc3ccc(Cl)nc3)CCN2C1O (stereo not drawn) [Compound 18, 1-((6-chloropyridin-3-yl)methyl)-6-methyl-8-nitro-1,2,3,5,6,7-hexahydroimidazo[1,2-a]pyridin-5-ol] |  |  |  |  | mortality at 500 ppm (Aphis craccivora): 98%; mortality at 500 ppm (Nilaparvata lugens): 100% |
| CCC1CC(O)N2CCN(Cc3ccc(Cl)nc3)C2=C1[N+](=O)[O-] (stereo not drawn) [Compound 22] | 93 | 98 |  |  |  |
| CCOC1CC(O)N2CCN(Cc3ccc(Cl)nc3)C2=C1[N+](=O)[O-] (stereo not drawn) [o] |  |  | 66.4 | 82 |  |
| CC1CC(O)N2CCN(Cc3cnc(Cl)s3)C2=C1[N+](=O)[O-] (stereo not drawn) [f] |  |  | 68 | 87 |  |

| Structure (SMILES) | Mortality (%) (500 ppm) Aphis craccivora (Aphis craccivora) | Mortality (%) (500 ppm) Nilaparvata lugens (Nilaparvata lugens) | Aphis craccivora LC50 (ppm) (Aphis craccivora) | Aphis craccivora Mortality (%) (100 ppm) (Aphis craccivora) | also measured |
| --- | --- | --- | --- | --- | --- |
| CC(=O)OC1CC(C)C([N+](=O)[O-])=C2N(Cc3ccc(Cl)nc3)CCN21 (stereo not drawn) [Compound 11, 1-((6-chloropyridin-3-yl)methyl)-7-methyl-8-nitro-1,2,3,5,6,7-hexahydroimidazo[1,2-a]pyridin-5-yl acetate] |  |  |  |  | mortality at 500 ppm (Aphis craccivora): 93%; mortality at 500 ppm (Nilaparvata lugens): 100% |
| CC1CC(OCC(F)(F)F)N2CCN(Cc3ccc(Cl)nc3)C2=C1[N+](=O)[O-] (stereo not drawn) [Compound 4] | 100 | 100 |  |  |  |
| COC1C(C)C([N+](=O)[O-])=C2N(Cc3ccc(Cl)nc3)CCN2C1O (stereo not drawn) [Compound 49] | 100 | 100 |  |  |  |
| C=CCOC1CC(C)C([N+](=O)[O-])=C2N(Cc3ccc(Cl)nc3)CCN21 (stereo not drawn) [Compound 9] | 98 | 100 |  |  |  |
| CCOC1CC(C)C([N+](=O)[O-])=C2N(Cc3cnc(Cl)s3)CCN21 (stereo not drawn) [Compound 13] | 98 | 100 |  |  |  |
| COC1CC(O)N2CCN(Cc3ccc(Cl)nc3)C2=C1[N+](=O)[O-] (stereo not drawn) [Compound 42, 1-((6-chloropyridin-3-yl)methyl)-7-methoxy-8-nitro-1,2,3,5,6,7-hexahydroimidazo[1,2-a]pyridin-5-ol] |  |  |  |  | mortality at 500 ppm (Aphis craccivora): 100%; mortality at 500 ppm (Nilaparvata lugens): 97% |
| CCOC1CC(C)C([N+](=O)[O-])=C2N(Cc3ccc(Cl)nc3)CCN21 (stereo not drawn) [Compound 3, 1-((6-chloropyridin-3-yl)methyl)-5-ethoxy-7-methyl-8-nitro-1,2,3,5,6,7-hexahydroimidazo[1,2-a]pyridine] |  |  |  |  | mortality at 500 ppm (Aphis craccivora): 100%; mortality at 500 ppm (Nilaparvata lugens): 100% |
| CCCC1CC([N+](=O)[O-])=C2N(Cc3ccc(Cl)nc3)CCN2C1OCC (stereo not drawn) [Compound 29] | 100 | 97 |  |  |  |
| CC(C)OC1CC(C)C([N+](=O)[O-])=C2N(Cc3ccc(Cl)nc3)CCN21 (stereo not drawn) [e] |  |  | 20.5 | 100 |  |
| COC1CC([N+](=O)[O-])=C2N(Cc3cnc(Cl)s3)CCN2C1O (stereo not drawn) [Compound 48] | 85 | 90 |  |  |  |
| CCOC1CC(C)C([N+](=O)[O-])=C2N(Cc3ccc(Cl)nc3)CCN21 (stereo not drawn) [c] |  |  | 65.4 | 67 |  |
| CC1C(O)N2CCN(Cc3ccc(Cl)nc3)C2=C([N+](=O)[O-])C1(C)C (stereo not drawn) [Compound 36] | 94 | 97 |  |  |  |
| CCC1C([N+](=O)[O-])=C2N(Cc3ccc(Cl)nc3)CCN2C(O)C1C (stereo not drawn) [m] |  |  | 75.9 | 87 |  |
| C#CCOC1CC(C)C([N+](=O)[O-])=C2N(Cc3ccc(Cl)nc3)CCN21 (stereo not drawn) [Compound 10] | 43 | 67 |  |  |  |
| COC1CC([N+](=O)[O-])=C2N(Cc3ccc(Cl)nc3)CCN2C1O (stereo not drawn) [p] |  |  | 47.6 | 93 |  |
| CCC1CC([N+](=O)[O-])=C2N(Cc3ccc(Cl)nc3)CCN2C1OC (stereo not drawn) [k] |  |  | 83.0 | 92 |  |
| CCCC1CC(O)N2CCN(Cc3ccc(Cl)nc3)C2=C1[N+](=O)[O-] (stereo not drawn) [i] |  |  | 75.2 | 77 |  |
| CCCOC1CC(C)C([N+](=O)[O-])=C2N(Cc3ccc(Cl)nc3)CCN21 (stereo not drawn) [d] |  |  | 33.6 | 75.4 |  |
| CC1C([N+](=O)[O-])=C2N(Cc3ccc(Cl)nc3)CCN2C(O)C1C (stereo not drawn) [l] |  |  | 86.4 | 66.7 |  |
| CC1CC([N+](=O)[O-])=C2N(Cc3ccc(Cl)nc3)CCN2C1O (stereo not drawn) [g] |  |  | 36.3 | 92 |  |
| CCC1CC([N+](=O)[O-])=C2N(Cc3ccc(Cl)nc3)CCN2C1O (stereo not drawn) [j] |  |  | 57.3 | 93.6 |  |
